Laboratory results from patent US7034045B1, “Monofluoroalkyl derivatives” (Eli Lilly and Company, priority 1999, dated 2006).

For `CC(C)S(=O)(=O)NCC(C)(F)c1ccc(-c2ccc(CC#N)cc2)cc1` (stereo not shown) [Example 9, 2-{4-[4-(1-Fluoro-1-methyl-2-{[(methylethyl)sulfonyl]amino}ethyl)phenyl]phenyl}ethanenitrile], which melting point is on record?
The melting point was 155 to 157 °C.
